Measured values: patent US10765114B2, “4-amino-6-(pyridyl and 2-substitutedphenyl)-picolinates and 6-amino-2-(pyridyl and 2-substitutedphenyl)-pyrimidine-4-carboxylates and their use as herbicides” (Dow AgroSciences LLC, priority 2013, dated 2020)

System: Key Grass and Sedge Weeds as well as Grass Crops
Test: Post-Emergent Test II (Table 6)
Type: in vivo
Settings: post-emergence, 336 h, CYPSS, 70 g ai/ha, 14 days after application, read-out: Visual Growth Reduction (%) 14 Days After Application CYPSS
Summary of the method: (§1)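 Visual injury ratings (0 = no injury, 100 = complete kill) were taken 14 days after treatment relative to untreated plants. Seedlings at the first or second true leaf stage received an overhead spray at 187 L/ha, and solvent-blank sprayed plants served as controls.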
Work on `Cc1c(-c2cc(N)c(Cl)c(C(=O)O)n2)ccc(Cl)c1Cl` [Compound 28] yielded a pest or weed control at 70 g/ha of 0 to 29%.

Same assay, conditions: post-emergence, 336 h, CYPSS, 140 g ai/ha, 14 days after application, read-out: Visual Growth Reduction (%) 14 Days After Application CYPSS
`Cc1c(-c2cc(N)c(Cl)c(C(=O)O)n2)ccc(Cl)c1Cl` [Compound 28] showed a pest or weed control at 140 g/ha of 0 to 29%.

Same assay, conditions: post-emergence, 336 h, DIGSA: crabgrass (Digitaria sanguinalis), 70 g ai/ha, 14 days after application, read-out: Visual Growth Reduction (%) 14 Days After Application DIGSA
For `Cc1c(-c2cc(N)c(Cl)c(C(=O)O)n2)ccc(Cl)c1Cl` [Compound 28], the pest or weed control at 70 g/ha was 0 to 29%.

Same assay, conditions: post-emergence, 336 h, DIGSA: crabgrass (Digitaria sanguinalis), 140 g ai/ha, 14 days after application, read-out: Visual Growth Reduction (%) 14 Days After Application DIGSA
`Cc1c(-c2cc(N)c(Cl)c(C(=O)O)n2)ccc(Cl)c1Cl` [Compound 28] showed a pest or weed control at 140 g/ha of 0 to 29%.

Same assay, conditions: post-emergence, 336 h, ECHSS, 70 g ai/ha, 14 days after application, read-out: Visual Growth Reduction (%) 14 Days After Application ECHSS
Compound `Cc1c(-c2cc(N)c(Cl)c(C(=O)O)n2)ccc(Cl)c1Cl` [Compound 28] has a pest or weed control at 70 g/ha of 0 to 29%.

Same assay, conditions: post-emergence, 336 h, ECHSS, 140 g ai/ha, 14 days after application, read-out: Visual Growth Reduction (%) 14 Days After Application ECHSS
`Cc1c(-c2cc(N)c(Cl)c(C(=O)O)n2)ccc(Cl)c1Cl` [Compound 28] gave a pest or weed control at 140 g/ha of 0 to 29%.

Same assay, conditions: post-emergence, 336 h, ORYSS (crop), 70 g ai/ha, 14 days after application, read-out: Visual Growth Reduction (%) 14 Days After Application ORYSS
`Cc1c(-c2cc(N)c(Cl)c(C(=O)O)n2)ccc(Cl)c1Cl` [Compound 28] gave a pest or weed control at 70 g/ha of 0 to 29%.

Same assay, conditions: post-emergence, 336 h, ORYSS (crop), 140 g ai/ha, 14 days after application, read-out: Visual Growth Reduction (%) 14 Days After Application ORYSS
Work on `Cc1c(-c2cc(N)c(Cl)c(C(=O)O)n2)ccc(Cl)c1Cl` [Compound 28] yielded a pest or weed control at 140 g/ha of 0 to 29%.

Same assay, conditions: post-emergence, 336 h, SETFA: giant foxtail (Setaria faberi), 70 g ai/ha, 14 days after application, read-out: Visual Growth Reduction (%) 14 Days After Application SETFA
For `Cc1c(-c2cc(N)c(Cl)c(C(=O)O)n2)ccc(Cl)c1Cl` [Compound 28], the pest or weed control at 70 g/ha was 0 to 29%.

Same assay, conditions: post-emergence, 336 h, SETFA: giant foxtail (Setaria faberi), 140 g ai/ha, 14 days after application, read-out: Visual Growth Reduction (%) 14 Days After Application SETFA
`Cc1c(-c2cc(N)c(Cl)c(C(=O)O)n2)ccc(Cl)c1Cl` [Compound 28] showed a pest or weed control at 140 g/ha of 0 to 29%.

Same assay, conditions: post-emergence, 336 h, SORVU: grain sorghum (Sorghum vulgare), 70 g ai/ha, 14 days after application, read-out: Visual Growth Reduction (%) 14 Days After Application SORVU
With `Cc1c(-c2cc(N)c(Cl)c(C(=O)O)n2)ccc(Cl)c1Cl` [Compound 28] the pest or weed control at 70 g/ha was 0 to 29%.

Same assay, conditions: post-emergence, 336 h, SORVU: grain sorghum (Sorghum vulgare), 140 g ai/ha, 14 days after application, read-out: Visual Growth Reduction (%) 14 Days After Application SORVU
Compound `Cc1c(-c2cc(N)c(Cl)c(C(=O)O)n2)ccc(Cl)c1Cl` [Compound 28] has a pest or weed control at 140 g/ha of 0 to 29%.

Same assay, conditions: post-emergence, 336 h, TRZSS (crop), 70 g ai/ha, 14 days after application, read-out: Visual Growth Reduction (%) 14 Days After Application TRZSS
`Cc1c(-c2cc(N)c(Cl)c(C(=O)O)n2)ccc(Cl)c1Cl` [Compound 28] showed a pest or weed control at 70 g/ha of 0 to 29%.

Same assay, conditions: post-emergence, 336 h, TRZSS (crop), 140 g ai/ha, 14 days after application, read-out: Visual Growth Reduction (%) 14 Days After Application TRZSS
`Cc1c(-c2cc(N)c(Cl)c(C(=O)O)n2)ccc(Cl)c1Cl` [Compound 28] gave a pest or weed control at 140 g/ha of 0 to 29%.

Same assay, conditions: post-emergence, 336 h, ZEAMX: maize, corn (Zea mays), 70 g ai/ha, 14 days after application, read-out: Visual Growth Reduction (%) 14 Days After Application ZEAMX
For `Cc1c(-c2cc(N)c(Cl)c(C(=O)O)n2)ccc(Cl)c1Cl` [Compound 28], the pest or weed control at 70 g/ha was 30 to 44%.

Same assay, conditions: post-emergence, 336 h, ZEAMX: maize, corn (Zea mays), 140 g ai/ha, 14 days after application, read-out: Visual Growth Reduction (%) 14 Days After Application ZEAMX
For `Cc1c(-c2cc(N)c(Cl)c(C(=O)O)n2)ccc(Cl)c1Cl` [Compound 28], the pest or weed control at 140 g/ha was 60 to 74%.

System: not given
Test: not given
Settings: not given
`Cc1c(-c2cc(N)c(Cl)c(C(=O)O)n2)ccc(Cl)c1Cl` [Compound 28] showed a melting point of 174 to 175 °C.

System: Key Broadleaf Weed and Crop Species
Test: Post-Emergent Test II (Table 5)
Type: in vivo
Settings: Abutilon theophrasti, post-emergence, 336 h, ABUTH: velvetleaf (Abutilon theophrasti), application rate 70 (kg ai/ha; footnote: g ai/ha), read-out: Visual Growth Reduction (%) 14 Days After Application ABUTH
Summary of the method: as §1
In the case of `Cc1c(-c2cc(N)c(Cl)c(C(=O)O)n2)ccc(Cl)c1Cl` [Compound 28], the pest or weed control at 70 g/ha is reported as 95 to 100%.

Same assay, conditions: Abutilon theophrasti, post-emergence, 336 h, ABUTH: velvetleaf (Abutilon theophrasti), application rate 140 (kg ai/ha; footnote: g ai/ha), read-out: Visual Growth Reduction (%) 14 Days After Application ABUTH
Work on `Cc1c(-c2cc(N)c(Cl)c(C(=O)O)n2)ccc(Cl)c1Cl` [Compound 28] yielded a pest or weed control at 140 g/ha of 95 to 100%.

Same assay, conditions: Amaranthus retroflexus, post-emergence, 336 h, AMARE: redroot pigweed (Amaranthus retroflexus), application rate 70 (kg ai/ha; footnote: g ai/ha), read-out: Visual Growth Reduction (%) 14 Days After Application AMARE
For `Cc1c(-c2cc(N)c(Cl)c(C(=O)O)n2)ccc(Cl)c1Cl` [Compound 28], the pest or weed control at 70 g/ha was 95 to 100%.

Same assay, conditions: Amaranthus retroflexus, post-emergence, 336 h, AMARE: redroot pigweed (Amaranthus retroflexus), application rate 140 (kg ai/ha; footnote: g ai/ha), read-out: Visual Growth Reduction (%) 14 Days After Application AMARE
In the case of `Cc1c(-c2cc(N)c(Cl)c(C(=O)O)n2)ccc(Cl)c1Cl` [Compound 28], the pest or weed control at 140 g/ha is reported as 95 to 100%.

Same assay, conditions: Brassica napus, post-emergence, 336 h, BRSSS: oilseed rape, canola (Brassica napus), application rate 70 (kg ai/ha; footnote: g ai/ha), read-out: Visual Growth Reduction (%) 14 Days After Application BRSSS
`Cc1c(-c2cc(N)c(Cl)c(C(=O)O)n2)ccc(Cl)c1Cl` [Compound 28] showed a pest or weed control at 70 g/ha of 60 to 74%.

Same assay, conditions: Brassica napus, post-emergence, 336 h, BRSSS: oilseed rape, canola (Brassica napus), application rate 140 (kg ai/ha; footnote: g ai/ha), read-out: Visual Growth Reduction (%) 14 Days After Application BRSSS
`Cc1c(-c2cc(N)c(Cl)c(C(=O)O)n2)ccc(Cl)c1Cl` [Compound 28] gave a pest or weed control at 140 g/ha of 75 to 84%.

Same assay, conditions: Chenopodium album, post-emergence, 336 h, CHEAL: lambsquarters (Chenopodium album), application rate 70 (kg ai/ha; footnote: g ai/ha), read-out: Visual Growth Reduction (%) 14 Days After Application CHEAL
`Cc1c(-c2cc(N)c(Cl)c(C(=O)O)n2)ccc(Cl)c1Cl` [Compound 28] showed a pest or weed control at 70 g/ha of 95 to 100%.

Same assay, conditions: Chenopodium album, post-emergence, 336 h, CHEAL: lambsquarters (Chenopodium album), application rate 140 (kg ai/ha; footnote: g ai/ha), read-out: Visual Growth Reduction (%) 14 Days After Application CHEAL
Compound `Cc1c(-c2cc(N)c(Cl)c(C(=O)O)n2)ccc(Cl)c1Cl` [Compound 28] has a pest or weed control at 140 g/ha of 95 to 100%.

Same assay, conditions: Euphorbia heterophylla, post-emergence, 336 h, EPHHL: wild poinsettia (Euphorbia heterophylla), application rate 70 (kg ai/ha; footnote: g ai/ha), read-out: Visual Growth Reduction (%) 14 Days After Application EPHHL
`Cc1c(-c2cc(N)c(Cl)c(C(=O)O)n2)ccc(Cl)c1Cl` [Compound 28] showed a pest or weed control at 70 g/ha of 0 to 29%.

Same assay, conditions: Euphorbia heterophylla, post-emergence, 336 h, EPHHL: wild poinsettia (Euphorbia heterophylla), application rate 140 (kg ai/ha; footnote: g ai/ha), read-out: Visual Growth Reduction (%) 14 Days After Application EPHHL
Work on `Cc1c(-c2cc(N)c(Cl)c(C(=O)O)n2)ccc(Cl)c1Cl` [Compound 28] yielded a pest or weed control at 140 g/ha of 0 to 29%.

Same assay, conditions: Helianthus annuus, post-emergence, 336 h, HELAN: sunflower (Helianthus annuus), application rate 70 (kg ai/ha; footnote: g ai/ha), read-out: Visual Growth Reduction (%) 14 Days After Application HELAN
In the case of `Cc1c(-c2cc(N)c(Cl)c(C(=O)O)n2)ccc(Cl)c1Cl` [Compound 28], the pest or weed control at 70 g/ha is reported as 85 to 94%.

Same assay, conditions: Helianthus annuus, post-emergence, 336 h, HELAN: sunflower (Helianthus annuus), application rate 140 (kg ai/ha; footnote: g ai/ha), read-out: Visual Growth Reduction (%) 14 Days After Application HELAN
With `Cc1c(-c2cc(N)c(Cl)c(C(=O)O)n2)ccc(Cl)c1Cl` [Compound 28] the pest or weed control at 140 g/ha was 85 to 94%.

Same assay, conditions: Viola tricolor, post-emergence, 336 h, VIOTR: wild pansy (Viola tricolor), application rate 70 (kg ai/ha; footnote: g ai/ha), read-out: Visual Growth Reduction (%) 14 Days After Application VIOTR
`Cc1c(-c2cc(N)c(Cl)c(C(=O)O)n2)ccc(Cl)c1Cl` [Compound 28] gave a pest or weed control at 70 g/ha of 0 to 29%.

Same assay, conditions: Viola tricolor, post-emergence, 336 h, VIOTR: wild pansy (Viola tricolor), application rate 140 (kg ai/ha; footnote: g ai/ha), read-out: Visual Growth Reduction (%) 14 Days After Application VIOTR
With `Cc1c(-c2cc(N)c(Cl)c(C(=O)O)n2)ccc(Cl)c1Cl` [Compound 28] the pest or weed control at 140 g/ha was 0 to 29%.
